Data published in US6982362B1, “α-tocopherol transport protein knockout animal” (priority 1999, dated 2006).

Test: Plasma α-tocopherol levels in mice fed with α-tocopherol (HPLC)
Assay type: in vivo, mouse
Details: fed α-tocopherol 82 μmol/kg from 4 weeks of age, time course FIG. 7
Method: Each of the homozygous α-TTP-deficient, heterozygous α-TTP-deficient and wild-type mice was fed with α-tocopherol at a concentration of 82 μmol/kg from 4 weeks of age. All mice were then assayed for their plasma α-tocopherol levels according to the method of Kim, H. S. et al. (Free Rad. Res. 28, 87–92, 1998). More specifically, 50 μl of mouse plasma collected using heparin was diluted with 950 Pl of PBS, mixed with 1 ml of 6% pyrogarol in EtOH, and then allowed to stand at 70° C. for 2 minutes. After addition of 60% KOH (0.2 ml), the mixture was saponified at 70° C. for 30 minutes, vortexed with 5 ml of n-hexane and 2.5 ml of H2O, and then centrifuged to collect the n-hexane layer (4 ml). The layer was evaporated and dissolved in […] of ethanol, followed by HPLC analysis. HPLC was performed under the following conditions: column: IRIKA RP18 (250×4 mm), mobile phase: MeOH/H2O/NaClO4 (1000/2/7, v/v/w), detection: IRIKA Amperometric E-520 detector. Tocol was used as an internal standard.

- plasma α-tocopherol level as compared with the wild-type mice (heterozygous α-TTP-deficient mice): about one-half
- plasma α-tocopherol level (homozygous α-TTP-deficient mice): under the detection limit
Compound: Cc1c(C)c2c(c(C)c1O)CC[C@@](C)(CCC[C@H](C)CCC[C@H](C)CCCC(C)C)O2 [α-tocopherol]
